Patent US20090036440A1, “NOVEL PYRIMIDINE DERIVATIVES - 816” (AstraZeneca AB, priority 2007, published 2009)

Assays:
human EphB4 = target: T1, human EphB4 (Homo sapiens, UniProt P54760); assay: In vitro EphB4 cell assay (EphB4 phosphorylation ELISA in EphB4-CHO cells); format: cell-based; conditions: ephrin-B2 stimulated EphB4 phosphorylation, read-out: Mean IC50 values obtained using Assay B
T1 construct: to generate full-length EphB4 containing a Myc-His tag at the C-terminus; expressed in transfected cells; EphB4-CHO)
T1 sequence (P54760 16-987): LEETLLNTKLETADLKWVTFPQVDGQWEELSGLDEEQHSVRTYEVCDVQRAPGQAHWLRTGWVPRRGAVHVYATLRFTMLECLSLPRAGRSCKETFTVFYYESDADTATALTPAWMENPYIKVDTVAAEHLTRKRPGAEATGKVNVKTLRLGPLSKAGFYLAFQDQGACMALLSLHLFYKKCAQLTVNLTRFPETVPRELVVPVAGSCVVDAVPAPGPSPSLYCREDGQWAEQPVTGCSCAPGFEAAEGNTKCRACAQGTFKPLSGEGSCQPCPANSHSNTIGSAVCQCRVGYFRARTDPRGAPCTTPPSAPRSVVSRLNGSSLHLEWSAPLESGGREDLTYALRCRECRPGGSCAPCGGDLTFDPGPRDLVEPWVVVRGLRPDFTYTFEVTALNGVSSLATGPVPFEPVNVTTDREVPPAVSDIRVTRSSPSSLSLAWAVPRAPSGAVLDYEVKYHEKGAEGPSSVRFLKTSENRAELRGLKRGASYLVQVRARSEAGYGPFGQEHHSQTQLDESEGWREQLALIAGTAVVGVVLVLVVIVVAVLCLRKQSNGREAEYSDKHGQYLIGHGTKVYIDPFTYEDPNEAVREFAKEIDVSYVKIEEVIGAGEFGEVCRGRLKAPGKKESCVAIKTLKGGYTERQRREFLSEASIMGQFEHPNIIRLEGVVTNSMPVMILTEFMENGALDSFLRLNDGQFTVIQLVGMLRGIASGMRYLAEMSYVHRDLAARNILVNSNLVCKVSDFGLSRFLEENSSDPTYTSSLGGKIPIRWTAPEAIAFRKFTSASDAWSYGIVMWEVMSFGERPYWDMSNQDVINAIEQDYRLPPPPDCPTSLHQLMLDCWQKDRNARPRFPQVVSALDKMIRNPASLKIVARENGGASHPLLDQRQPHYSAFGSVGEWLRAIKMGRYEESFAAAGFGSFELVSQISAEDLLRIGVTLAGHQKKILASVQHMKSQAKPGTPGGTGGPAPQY
Protocol: The assay identifies inhibitors of cellular EphB4 by measuring a decrease in phosphorylation of EphB4 following treatment of cells with compound. The endpoint assay used a sandwich ELISA to detect EphB4 phosphorylation status. Briefly, Myc-tagged EphB4 from treated cell lysate was captured on the ELISA plate via an anti-c-Myc antibody. The phosphorylation status of captured EphB4 was then measured using a generic phosphotyrosine antibody conjugated to HRP via a calorimetric output catalysed by HRP, with level of EphB4 phosphorylation directly proportional to the colour intensity. Absorbance was measured spectrophotometrically at 450 nm.
Full length human EphB4 (Swiss-Prot Acc. No. P54760) was cloned using standard techniques from cDNA prepared from HUVEC using RT-PCR. The cDNA fragment was then sub-cloned into a pcDNA3.1 expression vector containing a Myc-His epitope tag to generate full-length EphB4 containing a Myc-His tag at the C-terminus (Invitrogen Ltd. Paisley, UK). CHO-K1 cells (LGC Promochem, Teddington, Middlesex, UK, Catalogue No. CCL-61) were maintained in HAM's F12 medium (Sigma-Aldrich Company Ltd, Gillingham, Dorset SP8 4XT, Catalogue No. N4888) containing 10% heat-inactivated foetal calf serum (PAA lab GmbH, Pasching, Austria Catalogue No. PAA-A15-043) and 1% glutamax-1 (Invitrogen Ltd., Catalogue No. 35050-038) at 37° C. with 5% CO2. CHO-K1 cells were engineered to stably express the EphB4-Myc-His construct using standard stable transfection techniques, to generate cells hereafter termed EphB4-CHO.
For each assay, 10,000 EphB4-CHO cells were seeded into each well of Costar 96-well tissue-culture plate (Fisher Scientific UK, Loughborough, Leicestershire, UK., Catalogue No. 3598) and cultured overnight in full media. On day 2, the cells were incubated overnight in 90 μl/well of media containing 0.1% Hyclone stripped-serum (Fisher Scientific UK, Catalogue No. SH30068.02). Test compounds were prepared as 10 mM stock solutions in DMSO (Sigma-Aldrich Company Ltd, Gillingham, Dorset SP8 4XT Catalogue No. 154938) and serially diluted with serum-free media to give a range of test concentrations at 10× the required final concentration. A 10 μl aliquot of each compound dilution was transferred to the cell plates in duplicate wells, and the cells incubated for 1 hour at 37° C. Each plate also contained control wells: a maximum signal was created using untreated cells, and minimum signal corresponding to 100% inhibition was created using wells containing a reference compound known to abolish EphB4 activity. […]

recombinant EphB4 = target: T2, recombinant EphB4 (Homo sapiens, UniProt P54760); assay: In vitro EphB4 enzyme assay (Alphascreen); format: biochemical
T2 construct: recombinant active EphB4 (amino acids 563-987; Swiss-Prot Acc; No. P54760); purchased ProQinase GmbH 0178-0000-3
T2 sequence (P54760 563-987): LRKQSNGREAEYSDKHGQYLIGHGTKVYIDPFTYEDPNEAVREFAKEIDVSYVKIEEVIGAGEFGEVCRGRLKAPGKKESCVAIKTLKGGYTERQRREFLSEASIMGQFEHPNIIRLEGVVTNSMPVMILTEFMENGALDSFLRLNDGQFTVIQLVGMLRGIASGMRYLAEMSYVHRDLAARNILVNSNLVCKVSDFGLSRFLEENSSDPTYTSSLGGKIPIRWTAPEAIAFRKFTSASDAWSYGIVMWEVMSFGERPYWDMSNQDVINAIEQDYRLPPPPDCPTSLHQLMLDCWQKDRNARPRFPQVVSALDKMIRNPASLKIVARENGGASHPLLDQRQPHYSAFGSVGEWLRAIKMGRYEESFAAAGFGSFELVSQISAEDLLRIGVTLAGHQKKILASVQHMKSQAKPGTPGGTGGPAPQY
Protocol: This assay detects inhibitors of EphB4-mediated phosphorylation of a polypeptide substrate using Alphascreen™ luminescence detection technology. Briefly, recombinant EphB4 was incubated with a biotinylated-polypeptide substrate (biotin-poly-GAT) in presence of magnesium-ATP. The reaction was stopped by addition of EDTA, together with streptavidin-coated donor beads which bind the biotin-substrate containing any phosphorylated tyrosine residues. Anti-phosphotyrosine antibodies present on acceptor beads bind to phosphorylated substrate, thus bringing the donor & acceptor beads into close proximity. Subsequent excitation of the donor beads at 680 nm generated singlet oxygen species that interact with a chemiluminescer on the acceptor beads, leading to light emission at 520-620 nm. The signal intensity is directly proportional to the level of substrate phosphorylation and thus inhibition is measured by a decrease in signal.
To ensure that each well contained a total of 120 nl DMSO the wells were all backfilled as required. […] The test range of compounds was 100× the required final concentration.
Assay plates were then incubated at room temperature for 1 hour.
For assays using compounds prepared via acoustic dispensing, the assay mix was adjusted such that the final assay volume of 12 ul contained the same concentration of reagent as 10 ul of assay mix used when aqueous compounds were tested.
The plates were sealed under natural lighting conditions, wrapped in aluminium foil and incubated in the dark for a further 20 hours.
The resulting assay signal was determined on the Perkin Elmer EnVision plate reader. The minimum value was subtracted from all values, and the signal plotted against compound concentration to generate IC50 data. The method used to generate the compound dilutions was recorded with the IC50 value in the database.

[1] = compound preparation: Genesis (aqueous dilution)
[2] = compound preparation: Echo (acoustic dispensing)

Row | Compound | IC50 (human EphB4) | IC50 (recombinant EphB4; [1]) | IC50 (recombinant EphB4; [2])
1 | CN(c1ccnc(Nc2cc(Cl)cc(N3CCOCC3)n2)n1)c1ccc(F)c(Cl)c1F [Example 1, N′-(3-chloro-2,4-difluoro-phenyl)-N-(4-chloro-6-morpholin-4-yl-pyridin-2-yl)-N′-methyl-pyrimidine-2,4-diamine] | 354 nM | 38300 nM | 
2 | CN(c1ccnc(Nc2cc(N3CCOCC3)nc(N3CCOCC3)c2)n1)c1ccc(F)c(Cl)c1F [Example 2.1, N′-(3-chloro-2,4-difluoro-phenyl)-N-(2,6-dimorpholin-4-ylpyridin-4-yl)-N′-methyl-pyrimidine-2,4-diamine] | 8 nM | 1120 nM | 
3 | CN(c1ccnc(Nc2cc(N3CCOCC3)cc(N3CCOCC3)n2)n1)c1ccc(F)c(Cl)c1F [Example 2.2, N′-(3-chloro-2,4-difluoro-phenyl)-N-(4,6-dimorpholin-4-ylpyridin-2-yl)-N′-methyl-pyrimidine-2,4-diamine] |  | 808 nM | 
4 | CN(c1ccnc(Nc2cc(Cl)nc(N3CCOCC3)c2)n1)c1ccc(F)c(Cl)c1F [Example 2.3, N′-(3-chloro-2,4-difluoro-phenyl)-N-(2-chloro-6-morpholin-4-yl-pyridin-4-yl)-N′-methyl-pyrimidine-2,4-diamine] |  | 1780 nM | 
5 | CN(c1ccnc(Nc2cc(N3CCOCC3)nc(N3CCOCC3)n2)n1)c1ccc(F)c(Cl)c1F [Example 2.4, N′-(3-chloro-2,4-difluoro-phenyl)-N-(2,6-dimorpholin-4-ylpyrimidin-4-yl)-N′-methyl-pyrimidine-2,4-diamine] |  | 6270 nM | 
6 | Cc1ccc(CO)cc1N(C)c1ccnc(Nc2cc(Cl)cc(N3CCOCC3)n2)n1 [Example 3, [3-[[2-[(4-chloro-6-morpholin-4-yl-pyridin-2-yl)amino]pyrimidin-4-yl]-methyl-amino]-4-methyl-phenyl]methanol] | 28 nM | 198 nM | 

Further lines, results first:

Row | IC50 (human EphB4) | IC50 (recombinant EphB4; [1]) | IC50 (recombinant EphB4; [2]) | Compound
7 | 302 nM | 456 nM |  | Cc1ccc(CO)cc1N(C)c1ccnc(Nc2cc(N3CCOCC3)cc(N3CCOCC3)n2)n1 [Example 4.2, [3-[[2-[(4,6-dimorpholin-4-ylpyridin-2-yl)amino]pyrimidin-4-yl]-methyl-amino]-4-methyl-phenyl]methanol]
8 |  | 473 nM |  | Cc1ccc(CO)cc1N(C)c1ccnc(Nc2cc(Cl)nc(N3CCOCC3)c2)n1 [Example 4.3, [3-[[2-[(2-chloro-6-morpholin-4-yl-pyridin-4-yl)amino]pyrimidin-4-yl]-methyl-amino]-4-methyl-phenyl]methanol]
9 |  |  | 2.31 nM | COc1ccc(C)c(N(C)c2ccnc(Nc3cc(N4CCOCC4)nc(N4CCN(C)CC4)c3)n2)c1 [Example 5.1, N4-(5-methoxy-2-methylphenyl)-N4-methyl-N2-(2-(4-methylpiperazin-1-yl)-6-morpholinopyridin-4-yl)pyrimidine-2,4-diamine]
10 |  |  | 3.25 nM | COc1ccc(C)c(N(C)c2ccnc(Nc3cc(N4CCOCC4)nc(N4CCC(O)CC4)c3)n2)c1 [Example 5.2, 1-(4-(4-((5-methoxy-2-methylphenyl)(methyl)amino)pyrimidin-2-ylamino)-6-morpholinopyridin-2-yl)piperidin-4-ol]
